In patent US12668610B2, “Compounds for drug delivery across blood-brain barrier” (University of Houston System, priority 2020, dated 2026):
Numbered stars: 1 amine (or outer) side, 2 acyl side, 3 side chain; on linkers, the order of the positions; unused ones are H or OH. Square brackets hold non-standard residues; d marks the D form. Peptide text beside a SMILES is read from it. N((CH2)3OiPr)Gly = CC(C)OCCCNCC(=O)O; X1 = CC(c1ccccc1)N(CC(=O)[*:2])[*:1]; Nleu = CC(C)CNCC(=O)O; Nlys = NCCCCNCC(=O)O; Nme = COCCNCC(=O)O

Experiments:
[1] = Stability in human plasma (HPLC); assay type: in vitro ADME; conditions: 37° C.
Description: (§1) HPLC Analysis. RP-HPLC was conducted on an LC-20A liquid chromatographic system (Shimadzu, Japan). In detail, the HPLC system consisted of a Shimadzu LC-20AD solvent delivery pump, a SIL-20A auto-sampler, and a Shimadzu SPD-M20A UV/Vis detector. The TRBP-6 peptoid was analyzed using a Phenomenex® HPLC C18 column (250×4.6 mm, 5 μm) at room temperature. The mobile phase was composed of solvent A (0.1% TFA in water) and solvent B (0.1% TFA in acetonitrile, TFA: trifluoroacetic acid). An aliquot of 10 μl of TRBP-6 peptoid solution (350 μg/ml in ACN:H2O, 1:1) was injected into HPLC system. An isocratic method with flow rate of 1 ml/min was applied in 30% B for 15 min for TRBP-6. The detection wavelength was set to 220 nm. The data was acquired and processed with LabSolutions version 5.92. HPLC chromatograms for TRBP-6 are shown in FIG. 10, namely (A) PDA Chromatogram, and (B) PDA Spectrum. FIG. 10(A) is a RP-HPLC chromatogram of TRBP-6 (retention time tR=4.904 min) obtained by above HPLC method to illustrate the purity of the synthesized TRBP-6. FIG. 10(B) is a plot of UV absorbance spectrum of TRBP-6 obtained from injecting TRBP-6 into the HPLC column to show the wavelength of maximum UV absorbance of TRBP-6 (λmax=216 nm). Stability in PBS pH 7.4.
TRBP-6 peptoid solution with a concentration of 5 mg/ml in PBS was diluted to 1.4 mg/ml by human plasma. After incubation at 37° C. in human plasma for 0, 1, 3, 6, 9 and 24 h, 50 μl of the mixture was quenched with 150 μl of cold acetonitrile and centrifuged at […]×20 min. The supernatant (100 μl) was detected by HPLC. The assay was performed in triplicates.

[2] = In vivo biodistribution study of Cy5.5-labeled peptoids in CD-1 mice (IVIS imaging)
Description: The activity of these compounds to deliver Cy5.5 fluorescent dye into the brains of mice was investigated. […] The Cy5.5 labeled peptoids or Cy5.5-Ang peptide were injected intravenously to CD-1 mice (25 nmol/mouse, n=4 per compound) and imaged using IVIS imager. The mice were sacrificed at 30 minutes, the heart was perfused with 10 mL of PBS, blood and organs were collected for ex vivo imaging.
Biodistribution of Cy5.5-labeled peptoids and control Cy5.5-Ang was performed on healthy female CD-1 mice (6-8 weeks old, n=4 per group). Fluorescently labeled peptoids and Cy5.5-Ang were prepared in 100 μl saline (25 nmol of Cy5.5-TRBP in 100 μl saline per mouse) were injected intravenously via tail vein into mice. The whole body imaging of fluorescence signal was measured at 5, 15 and 30 min using the IVIS Spectrum in vivo imaging system (PerkinElmer). At 30 min, mice were euthanized and brain was perfused with 10 mL of 10% heparinized PBS at […] flow rate via left ventricle of mice. A small incision to the right atrium was made using iris scissors before perfusion. After brain perfusion, the vital organs (brain, heart, lung, liver, spleen also blood and plasma) were collected for ex vivo imaging. The fluorescence intensity was measured at wavelength with an excitation of 660 nm and maximum emission at 710 nm. The organ region of interest (ROI) was measured and analyzed using Living image software. Data of the experiments were expressed as mean±SD and analyzed by One-way ANOVA with Dunnett's multiple comparison test. The statistical analysis was done in Graphpad Prism (Graphpad Inc., version 7.04), the results were considered statistically significant if p<0.05.

[3] = tested on: transferrin receptor positive HeLa cells; assay: Validation of on-bead two-color binding with resynthesized compound on TentaGel beads; assay type: cell-based, human; conditions: 1.0 hour at room temperature, fluorescence microscope
Description: The on-bead two-color combinatorial cell-screening was validated by resynthesizing the compounds on tentagel beads and incubating them with transferrin receptor positive HeLa cells and transferrin receptor negative Hela cells separately as well as a mixture of these cells. The beads specifically bound with the transferrin receptor positive HeLa cells. Results are shown in FIG. 3, with the cells shown on the left column and the beads containing TRBP6 after incubation with the cells shown in the right column.
Nearly 50,000 peptoid library beads were washed two times in DMEM medium containing 10% FBS (media) and then incubated in 1.0 ml (DMEM+10% FBS) for 1.0 hour in a polypropylene tube. Transferrin receptor positive HeLa cells and transferrin receptor negative HeLa cells were removed from culture plates with GIBCO enzyme free cell dissociation buffer 2.0 ml per plate for 20 minutes at 37° C. Cells were washed and suspended in DMEM+10% FBS media. Cells were counted and distributed in 1.5 ml microcentrifuge tubes with 1.0×10^6 cells in 1.0 ml of media. Then the cell labeling procedure was conducted as follows: 1.0 μl each of Qtracker reagent A and B were mixed in a 1.5 ml microcentrifuged tubes and incubated for 5.0 minutes at room temperature. […] Labeled cells were visualized with long-pass filter of BX-51 fluorescence microscope (Olympus, PA) with a color camera. […]

transferrin receptor = target: T1, transferrin receptor (Homo sapiens, UniProt P02786); assay: In vitro pull-down assay with compound-conjugated beads and western blot; assay type: binding; conditions: lysates of transferrin receptor positive or negative HeLa cells, compound-conjugated beads, 4° C. overnight, western blot anti-hTfR
T1 construct: Cell lysates from HeLa cells with transferrin receptor expression or transferrin receptor knockdown were extracted using RIPA buffer; endogenous in cells; host or cells: HeLa (ATCC)
Description: The binding of three exemplary compounds to the transferrin receptor was confirmed in a pull-down assay. Cell lysates from transferrin receptor positive or negative HeLa cells were extracted using RIPA buffer, and subsequently incubated with TRBP3, TRBP5, or TRBP6 conjugated beads at 4° C. overnight. The beads were then washed with RIPA buffer for 3 times, and the binding proteins were eluted with 1% SDS. The yielded lysates were then applied onto 10% SDS-PAGE gel and subjected to western blotting analysis with antibody against transferrin receptor.
Cell lysates from HeLa cells with transferrin receptor expression or transferrin receptor knockdown were extracted using RIPA buffer (Alfa Aesar) supplemented with protease inhibitors (Roche), and subsequently incubated with TRBP6, TRBP3, and TRBP5 conjugated beads at 4° C. overnight. The beads were then washed with RIPA buffer for 3 times, and the binding proteins were eluted with 1% SDS at 95° C. for 5 mins. The yielded lysates were then mixed with 4× Laemmli Sample Buffer (loading buffer) (Bio-Rad). […]
Cells were lysed in RIPA buffer (1% NP-40, 0.5% sodium deoxycholate, 0.1% SDS in PBS). […] Protein concentration was determined by Bio-Rad DC protein assay (Bio-Rad). […] Signals of targeted proteins were detected by the Immun-Star HRP peroxide Luminol/Enhancer (Bio-Rad) and recorded on ChemiDoc Touch Imaging System (Bio-Rad). […]

[4] = Solubility in water by titration; assay type: physicochemical; conditions: deionised water; DI water
Description: Solubility of TRBP-6 peptoid was determined by titration. Briefly, a precise amount (5 mg) of TRBP-6 was measured in a transparent 1.5 ml Eppendorf tube. DI water was added dropwise (˜5 μl/drop) into the tube until the solids were completely dissolved and the solution was clear. Solubility was calculated as the ratio of quantity of peptoid and the total volume of DI water. […] The solubility of TRBP6 in water is shown below.

[5] = Stability in PBS pH 7.4 (HPLC); assay type: physicochemical; conditions: 37° C., 350 μg/ml
Description: as §1
TRBP-6 peptoid was diluted with PBS pH 7.4 to 350 μg/ml. The solution was incubated in the water bath at 37° C. with gentle shaking. The aliquots (50 μl) were withdrawn from the TRBP-6 solution at different time intervals (0, 1, 3, 6, 9, 24 h). At each time point, 10 μl of solution was injected into HPLC for analysis. To examine the reproducibility, the experiments were carried out in triplicate.

T1 sequence (P02786 whole entry): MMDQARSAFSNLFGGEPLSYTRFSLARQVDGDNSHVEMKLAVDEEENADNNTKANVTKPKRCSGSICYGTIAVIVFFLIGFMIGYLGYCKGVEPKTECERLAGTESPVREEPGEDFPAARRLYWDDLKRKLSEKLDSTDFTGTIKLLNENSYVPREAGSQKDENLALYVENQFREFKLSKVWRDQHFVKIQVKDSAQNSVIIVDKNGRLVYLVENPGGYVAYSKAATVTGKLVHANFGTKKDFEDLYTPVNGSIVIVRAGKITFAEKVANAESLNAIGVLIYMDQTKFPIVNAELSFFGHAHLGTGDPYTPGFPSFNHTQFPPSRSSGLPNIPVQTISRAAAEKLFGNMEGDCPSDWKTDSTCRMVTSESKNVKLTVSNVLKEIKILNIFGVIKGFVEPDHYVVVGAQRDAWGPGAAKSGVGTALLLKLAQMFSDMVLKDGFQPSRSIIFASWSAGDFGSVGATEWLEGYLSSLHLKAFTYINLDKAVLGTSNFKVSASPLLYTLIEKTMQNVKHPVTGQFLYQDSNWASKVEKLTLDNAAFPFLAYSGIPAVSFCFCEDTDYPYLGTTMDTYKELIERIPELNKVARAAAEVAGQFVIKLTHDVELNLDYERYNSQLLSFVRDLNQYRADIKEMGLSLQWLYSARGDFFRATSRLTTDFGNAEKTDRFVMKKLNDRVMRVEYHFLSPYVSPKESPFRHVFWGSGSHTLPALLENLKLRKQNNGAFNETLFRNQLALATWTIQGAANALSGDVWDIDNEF

- TRBP-6 amount remains (%) in human plasma ([1]; 0 h, 1.4 mg/ml): 100.0 ± 1.2%
- stability (overall statement) ([1]; PBS pH 7.4 and human plasma, up to 24 h): excellent stability
- remaining at 1 h, 1.4 mg/ml ([1]; human, human plasma, 1 h, 1.4 mg/ml, read-out: TRBP-6 amount remains (%) in human plasma): 99.5 ± 3.5%
- remaining at 3 h, 1.4 mg/ml ([1]; human, human plasma, 3 h, 1.4 mg/ml, read-out: TRBP-6 amount remains (%) in human plasma): 94 ± 2.1%
- remaining at 6 h, 1.4 mg/ml ([1]; human, human plasma, 6 h, 1.4 mg/ml, read-out: TRBP-6 amount remains (%) in human plasma): 93 ± 5.3%
- remaining at 9 h, 1.4 mg/ml ([1]; human, human plasma, 9 h, 1.4 mg/ml, read-out: TRBP-6 amount remains (%) in human plasma): 92 ± 2.9%
- remaining at 24 h, 1.4 mg/ml ([1]; human, human plasma, 24 h, 1.4 mg/ml, read-out: TRBP-6 amount remains (%) in human plasma): 90.3 ± 4.7%
- binding to the transferrin receptor in pull-down assay (transferrin receptor): confirmed
- solubility [4]: > 496 mg/mL
- TRBP-6 amount remains (%) in PBS pH 7.4 ([5]; 0 h): 100.0 ± 2.4%
- TRBP-6 amount remains (%) in PBS pH 7.4 ([5]; 1 h): 98.9 ± 6.5%
- TRBP-6 amount remains (%) in PBS pH 7.4 ([5]; 3 h): 95.5 ± 3.3%
- TRBP-6 amount remains (%) in PBS pH 7.4 ([5]; 6 h): 94.6 ± 2.3%
- TRBP-6 amount remains (%) in PBS pH 7.4 ([5]; 9 h): 92.7 ± 0.2%
- TRBP-6 amount remains (%) in PBS pH 7.4 ([5]; 24 h): 91.3 ± 3.8%
Compound: COCCN(CC(=O)NC(CCCCN)C(=O)NC(CCSC)C(N)=O)C(=O)CN(CC(C)C)C(=O)CN(C(=O)CN(CCCCN)C(=O)CN(CCCOC(C)C)C(=O)CNCCCCN)C(C)c1ccccc1 (stereo not shown) [TRBP6] (H-[Nlys][N((CH2)3OiPr)Gly][Nlys][X1][Nleu][Nme]KM-NH2; configuration not given here)
- efficacy of brain delivery compared with other compounds including Angiopep-2 (Ang) peptide ([2]; 25 nmol/mouse intravenously): much higher than other compounds
- delivery of Cy5.5 into the brain ([2]; 25 nmol/mouse intravenously, imaging 5, 15, 30 min and ex vivo after perfusion): effectively delivered Cy5.5 into the brain
- efficiency in brain delivery compared with other compounds including Ang peptide ([2]; 30 minutes after injection, 25 nmol/mouse i.v.): superior efficiency than other compounds
- binding of beads to transferrin receptor positive (red) vs negative (green) HeLa cells [3]: only showed binding with red cells but not with green cells
